Laboratory results reported in a melting point compilation (Tetko et al.).

For `O=Cc1cc(O)c(O)c(Br)c1`, the melting point was 219 to 221 °C.
In the case of `NC(=O)NCc1ccncc1`, the melting point is reported as 198 to 200 °C.
`Oc1ccnc2cc(F)c(F)cc12` gave a melting point of 298 to 300 °C.
In the case of `O=C(O)c1cc(S(=O)(=O)Cl)c(F)cc1F`, the melting point is reported as 129 to 131 °C.
With `CN(Cc1ccccc1)S(N)(=O)=O` the melting point was 92 to 94 °C.
Compound `CC(Oc1ccc(Cl)cc1[N+](=O)[O-])C(=O)O` (configuration not stated) has a melting point of 119 to 121 °C.
Compound `CC=Cc1ccc(OCC(=O)O)c(OC)c1` has a melting point of 117 to 119 °C.
With `Cc1nc(N2CCOCC2)sc1C=O` the melting point was 166 to 168 °C.
With `N#CCc1ccc([N+](=O)[O-])cn1` the melting point was 62 to 64 °C.
`Nc1ccc2nc(-n3ccnc3)sc2c1` showed a melting point of 202 to 204 °C.
`CCN1CCN(S(=O)(=O)c2ccc(Cl)c(C(=O)O)c2)CC1` showed a melting point of 189 to 191 °C.
`Cc1ccc(NS(=O)(=O)c2c[nH]c(C(=O)O)c2)c(C)c1` showed a melting point of 218 to 220 °C.
For `N#Cc1cc(F)ccc1-n1ccc(N)n1`, the melting point was 128 to 130 °C.
For `COC(=O)c1ccc2ccccc2n1`, the melting point was 83 to 85 °C.
With `COc1ccc(N)cc1NC(=O)OC(C)(C)C` the melting point was 108 to 110 °C.
For `O=C(CCl)NCC(=O)Nc1ccc(F)c(F)c1F`, the melting point was 160 to 162 °C.
Work on `Cc1nn(Cc2ccc(Cl)cc2)c(C)c1CO` yielded a melting point of 132 to 134 °C.
`CC(Cl)C(=O)NCc1ccc(F)cc1` (configuration not stated) gave a melting point of 90 to 92 °C.
With `O=C(O)c1nnn(-c2ccc(Br)cc2)c1C(F)(F)F` the melting point was 169 to 171 °C.
Work on `N#Cc1nc(-c2ccccc2)oc1NN` yielded a melting point of 209 to 211 °C.
With `O=C(CCl)N1CCN(c2ncccn2)CC1` the melting point was 100 to 102 °C.
With `N#Cc1ncn(CC(N)=O)n1` the melting point was 194 to 196 °C.
`OCc1cn(-c2ccc(Cl)cc2)nn1` showed a melting point of 142 to 144 °C.
Work on `Nc1ncnc2sc3c(c12)CCCC3` yielded a melting point of 239 to 241 °C.
`O=C(O)C(CO)NS(=O)(=O)c1ccc(Cl)cc1` (configuration not stated) gave a melting point of 206 to 208 °C.
Compound `O=C1NC(=O)C2(CCCC2)N1` has a melting point of 140 to 142 °C.
`Cc1csc(CC(N)=NO)n1` gave a melting point of 126 to 128 °C.
For `CC1(c2ccc(F)cc2F)NC(=O)NC1=O` (configuration not stated), the melting point was 194 to 196 °C.
In the case of `O=C(O)c1cc(C2CC2)nc2c1cnn2Cc1ccncc1`, the melting point is reported as 238 to 240 °C.
Work on `NCc1cccc(CS(N)(=O)=O)c1` yielded a melting point of 142 to 144 °C.
Work on `COc1cc(C)c(S(=O)(=O)Cl)cc1OC` yielded a melting point of 73 to 75 °C.
With `NS(=O)(=O)c1ccc(CCNS(=O)(=O)c2cccc(C(=O)O)c2)cc1` the melting point was 226 to 228 °C.
`Cc1csc(Nc2ccccc2)n1` showed a melting point of 74 to 76 °C.
In the case of `COc1cc(N)c(C(=O)O)cc1OC(F)F`, the melting point is reported as 168 to 170 °C.
For `O=C1CC(C(F)F)=NN1`, the melting point was 149 to 151 °C.
Work on `Cc1ccc(F)cc1-c1nc2ccccc2[nH]1` yielded a melting point of 223 to 225 °C.
For `NC1CCN(c2ccc(Cl)c(Cl)c2)C1=O` (configuration not stated), the melting point was 104 to 106 °C.
Work on `O=C(CCl)NC1CCN(C(=O)CCc2ccccc2)CC1` yielded a melting point of 117 to 119 °C.
Work on `CC(C)(C)c1nnn[nH]1` yielded a melting point of 203 to 205 °C.
In the case of `O=C(O)c1csc(-c2cccc(C(F)(F)F)c2)n1`, the melting point is reported as 200 to 202 °C.
In the case of `O=C(O)c1noc(-c2cc(Cl)ccc2F)n1`, the melting point is reported as 113 to 115 °C.
`NNC(=S)NCCc1ccccn1` showed a melting point of 124 to 126 °C.
Work on `Cc1ccc2nc(CCl)cc(=O)n2c1` yielded a melting point of 136 to 138 °C.
For `COCCOC(=O)c1c(C)[nH]c(C(=O)O)c1C`, the melting point was 177 to 179 °C.
`CCC1Nc2ccc(C(=O)O)cc2NC1=O` (configuration not stated) showed a melting point of 250 to 252 °C.
Work on `CC(=O)c1ccc2c(c1)C(C)(C)C(=O)N2` yielded a melting point of 187 to 189 °C.
Compound `Cc1ccc(N)cc1-n1cnnn1` has a melting point of 113 to 115 °C.
`O=C(Nc1cn[nH]c1)Oc1ccccc1` showed a melting point of 179 to 181 °C.
`CC(=O)c1cc(S(N)(=O)=O)ccc1C` gave a melting point of 124 to 126 °C.
`CC(=O)N(CCc1ccccc1)CC(=O)O` showed a melting point of 149 to 151 °C.
In the case of `Cc1cc(C(=O)O)on1`, the melting point is reported as 199 to 201 °C.
Work on `Cc1ccc(C(=O)O)cc1OCc1csc(Br)c1` yielded a melting point of 158 to 160 °C.
`COc1ccc(-c2cc(C(=O)O)sc2C)cc1` gave a melting point of 186 to 188 °C.
With `N#CCc1cccc(C(=O)O)c1` the melting point was 166 to 168 °C.
`Nc1[nH]ncc1-c1ccc2c(c1)OCO2` gave a melting point of 166 to 168 °C.
For `Clc1nc(CN2CCCCC2)nc2scc(-c3cccs3)c12`, the melting point was 89 to 91 °C.
In the case of `CC(Oc1cccc(F)c1)C(=O)O` (configuration not stated), the melting point is reported as 95 to 97 °C.
`O=[N+]([O-])c1ccc(CBr)c(F)c1` showed a melting point of 59 to 61 °C.
Compound `O=C(O)c1c[nH]cc1-c1cc(Cl)c2c(c1)OCCO2` has a melting point of 209 to 211 °C.
Work on `Cc1ccc2nc(S)n(C)c(=O)c2c1` yielded a melting point of 275 to 277 °C.
With `ClCc1nc(-c2ccoc2)no1` the melting point was 50 to 52 °C.
Compound `Nc1ccc(-c2n[nH]c(=O)[nH]2)cc1` has a melting point of 333 to 335 °C.
`CC(=O)Nc1scc(-c2cccs2)c1C(=O)O` showed a melting point of 227 to 229 °C.
In the case of `Cc1nn(C)c2c1N(C(=O)OC(C)(C)C)CC(C)N2` (configuration not stated), the melting point is reported as 129 to 131 °C.
Work on `Nc1nc2ccc(F)cn2n1` yielded a melting point of 166 to 168 °C.
For `O=Cc1ccc(OCc2cscn2)cc1`, the melting point was 78 to 80 °C.
`NCCCN1C(=O)C2C3C=CC(C3)C2C1=O` (configuration not stated) gave a melting point of 66 to 68 °C.
`O=C(O)c1ccc(Br)cc1OC(F)F` gave a melting point of 133 to 135 °C.
For `O=C(O)C=CC(=O)c1ccc(F)c(F)c1`, the melting point was 114 to 116 °C.
With `COc1ccc(N2CCN(C(=O)CCCl)CC2)cc1` the melting point was 73 to 75 °C.
For `CC1CC1c1ccc(C(=O)O)o1` (configuration not stated), the melting point was 55 to 57 °C.
With `Cc1ccccc1Cc1cnc(N)s1` the melting point was 102 to 104 °C.
